By IC50 is commonly meant the concentration at which inhibition is half-maximal. Lower therefore signals inhibition by little substance.

Our source for the IC50 values is ChEMBL document CHEMBL1153896, “Antiproliferative cardenolide glycosides of Elaeodendron alluaudianum from the Madagascar Rainforest” (Bioorg Med Chem, 2009).

Holding throughout (format): functional, cell-based
Test [1] deals with U-937. The test can be described thus: Antiproliferative activity against human U937 cells after 96 hrs by celltiter-glo luminescent cell viability assay. Conditions: U-937, 96 h. For orientation: ATP-based viability assays read luminescence as a measure of living cells.
Test [2] has as its system A2780. The test can be described thus: Antiproliferative activity against human A2780 cells after 96 hrs by celltiter-glo luminescent cell viability assay. Conditions: A2780, 96 h.
Test [3] is described as follows: Antiproliferative activity against HSG cells. Conditions: Homo sapiens.
The subject of test [4] is KB. The test can be described thus: Antiproliferative activity against human KB cells.

Consider `C[C@H]1O[C@@H](O[C@H]2CC[C@]3(CO)[C@H]4[C@H](O)C[C@]5(C)[C@@H](C6=CC(=O)OC6)CC[C@]5(O)[C@@H]4CC[C@]3(O)C2)[C@H](O)[C@H](O)[C@@H]1O[C@@H]1O[C@H](CO)[C@@H](O)[C@@H](O)[C@H]1O` [ELAEODENDROSIDE V], for which the half-inhibitory concentration (IC50) in test [1] stood at 150 nM; in test [2], 120 nM.
The compound `C[C@H]1O[C@@H](O[C@H]2[C@H](O)[C@H](O)[C@H](O[C@H]3CC[C@]4(C=O)[C@H]5[C@H](O)C[C@]6(C)[C@@H](C7=CC(=O)OC7)CC[C@]6(O)[C@@H]5CC[C@]4(O)C3)O[C@@H]2C)[C@@H](O)[C@@H](O)[C@@H]1O` registered an IC50 in test [3] of 49 nM.
Take `C[C@H]1O[C@@H](O[C@H]2CC[C@]3(C=O)[C@H]4[C@H](O)C[C@]5(C)[C@@H](C6=CC(=O)OC6)CC[C@]5(O)[C@@H]4CC[C@]3(O)C2)[C@H](O)[C@H](O)[C@@H]1O[C@@H]1O[C@H](CO)[C@@H](O)[C@@H](O)[C@H]1O` [ELAEODENDROSIDE W]: the IC50 worked out at 80 nM in test [1] and 70 nM in test [2].
The compound `C[C@H]1O[C@@H](O[C@H]2CC[C@]3(C=O)[C@H]4[C@H](O)C[C@]5(C)[C@@H](C6=CC(=O)OC6)CC[C@]5(O)[C@@H]4CC[C@]3(O)C2)[C@H](O)[C@H](O)[C@H]1O` registered an IC50 in test [4] of 74 nM. This counts as double-digit nanomolar.
